Several values for one entry are separate records, joined by “and”; a condition that tells them apart may be missing. Equal values may be shown once.
How the values were obtained:
[1] = ferric reducing antioxidant power (FRAP) assay; conditions: % of ascorbic acid activity; compounds and AA at 1 mM
Procedure: The total antioxidant potential of aryl-substituted phenylalanine derivatives was determined using FRAP assay. The FRAP reagent was prepared first by mixing acetate buffer (300 mM, pH 3.6), a solution of 10 mM TPTZ (2,4,6-tripyridyl-s-triazine, Sigma-Aldrich, Inc., St. Louis, MO, USA) in 40 mM HCl and 20 mM of iron (III) chloride hexahydrate (FeCl3 × 6H2O, Chempur, Piekary Śląskie, Poland) at 10:1:1 (v/v/v). The FRAP reagent (190 μL) and 1 mM of tested compound (10 μL) was added next to each well, mixed and incubated for 30 min. The absorbance was measured using a microplate reader EnSpire (PerkinElmer, Waltham, MA USA) at 593 nm. AA (1 mM, AMARA, Kraków, Poland) was used as the reference antioxidant. The results were expressed as % of ascorbic acid activity (%AAA). Analyses were performed in triplicate. • ORAC-FL

[2] = system: IMR-32 neuroblastoma cells; assay: cell viability, MTS assay; assay type: cell-based, human; conditions: IMR-32, 24 h incubation, 1–100 µM
Procedure: (§1) All cell culture protocols and assay conditions were applied as we reported previously. SH-SY5Y (ATCC® CRL-2266™) cell line was purchased from ATCC (Manassas, VA, USA). IMR-32 (ATCC® CCL-127™) cell line was kindly provided by the Department of Oncogenomics, Academisch Medisch Centrum, Amsterdam, Holland. Before each test SH-SY5Y or IMR-32 cells were seeded in 96-well plates with transparent bottom at a concentration of 2.5 × 10^4 cells/well in 100 μL of respective cell culture medium and cultured for 24 h to reach 70% confluence. • Cell Viability
(§2) The CellTiter 96® AQueous Non-Radioactive Cell Proliferation Assay was purchased from Promega (Madison, WI, USA). After 24 h of cells incubation with compound 1 or 8 in the concentrations range 1–100 µM the MTS-based labeling mixture was added to each well and cells were incubated under the same conditions for 2–3 h. The absorbance was measured using a microplate reader EnSpire (PerkinElmer, Waltham, MA, USA) at 490 nm. All measurements were performed in triplicate and results are shown as mean ± SD. • Lactate Dehydrogenase Test

[3] = system: SH-SY5Y neuroblastoma cells; assay: cell viability, MTS assay; assay type: cell-based, human; conditions: 24 h incubation, 1–100 µM
Procedure: as §1, §2

SH-SY5Y cells = assay: ROS assay (DCFH-DA), H2O2-induced ROS accumulation; assay type: cell-based, human; conditions: compound 50 µM, 500 µM H2O2, 3 h
Procedure: as §1
During this assay SH-SY5Y cells were preincubated first for 1 h with 250 μM solution of DCFH-DA (Sigma-Aldrich, Inc., St. Louis, MO, USA) in HBSS buffer. After DCFH-DA was removed, cells were washed with HBSS and incubated next for 1 h with 50 μM of compound 1 or 8. Next, the H2O2 was added at final concentration 500 μM. After 3 h of incubation, the fluorescence was measured using a microplate reader EnSpire (PerkinElmer, Waltham, MA, USA) with an excitation wavelength of 486 nm and emission wavelength of 530 nm. All measurements were performed in triplicate and results are shown as mean ± SD.

[4] = system: 6-Hz psychomotor seizures in mice; assay: 6-Hz test; assay type: in vivo; conditions: 100 mg/kg i.p.
Procedure: (§3) Behavioral experiments were carried out in male Albino Swiss (CD-1) mice weighing 18–22 g. The mice were kept in cages, in groups of 10 animals. They had free access to food and water before experiments, and were maintained at room temperature 22–24 °C, under 12:12 (light/dark) cycle. For the assays the animals were selected randomly. After the experiments the animals were euthanized by cervical dislocation. Experimental procedures for in vivo tests were approved by the Local Ethics Committee of the Jagiellonian University in Krakow (Approval No. 33/2018; release date: 1.02.2018) and the treatment of animals was performed in full accordance with ethical standards laid down in respective Polish and EU regulations (Directive 2010/63/EU).
Oxaliplatin was purchased from Activate Scientific GmbH (Prien, Germany). PTZ and STZ were provided by Merck KGaA (Darmstadt, Germany). For the in vivo tests, the compound 1 was suspended in 1% Tween 80 solution (Polskie Odczynniki Chemiczne, Gliwice, Poland), then being administered intraperitoneally 1 h before tests. For the evaluation of anticonvulsant properties of the test compound, a fixed dose of 100 mg/kg, was used. Since many AEDs at lower doses are used as analgesic drugs, for pain tests the doses 10 and 30 mg/kg were selected.
This test was performed according to Barton et al.. […]

[5] = system: heat hyperalgesia in diabetic mice; assay: diabetic (STZ) neuropathic pain model, hot plate test; assay type: in vivo; conditions: 30 mg/kg i.p.
Procedure: as §3
Oxaliplatin was purchased from Activate Scientific GmbH (Prien, Germany). PTZ and STZ were provided by Merck KGaA (Darmstadt, Germany). […]
To induce type I diabetes and diabetic neuropathic pain, mice were administered STZ, an alkylating antitumor drug that destroys insulin-secreting islet cells. […] Blood glucose levels were measured 1 day before (referred to as ‘day 0′) and repeatedly 1, 2 and 3 weeks after STZ injection using a blood glucose monitoring system (AccuChek Active, Roche, France). […]
The effect of 1 on heat hyperalgesia was assessed using the hot plate test. […]

NC(Cc1cc(-c2cc(O)ccc2O)c(Cl)c([N+](=O)[O-])c1)C(=O)O (stereo not shown) [Compound 1]
FRAP (%AAA) [1]: 748.5 %AAA and 748.49 %AAA
cell viability [2]: no influence on cell viability
cell viability [3]: no influence on cell viability
intracellular ROS level (SH-SY5Y cells): statistically significant decrease
Mortality rate (%) [4]: 0%
X/Y, number of mice protected (X) per number of mice tested (Y) ([4]; 1 h before test): 3/4
antihyperalgesic activity, hot plate test (latency to pain reaction) [5]: antihyperalgesic activity was not observed
